Test [1] addresses HER2YVMA (Homo sapiens, UniProt P04626, INS775YVMA). Nature of the test: HER2 signaling (pHER2) in Hek293-HER2YVMA cells. Type of test: cell-based. On the set-up: expressed in transfected cells; host or cells: HEK293 (pool), Ba/F3 (clones), BEAS2B (clones); lentiviral vector pCDH-CMV-MCS-EF1-Neo. To be noted: 1.5 hr compound, 1% FBS, read-out: HEKYVMA pHER2 EC50. On the procedure: Cell culture, plasmid cloning, and lentiviral transduction were carried out according to standard procedures. The Human HER2 cDNA construct in pCMV6-Entry for the HER2 wildtype (WT) expression was obtained from Origene. The HER2 cDNA including the 12-nucleotide insertion corresponding to YVMA insertion (HER2YVMA) was codon optimized, synthesized and cloned by GenScript (Piscataway, NJ) in pcDNA3.1. The lentiviral constructs expressing HER2YVMA and HER2 WT were sub-cloned using PCR at System Biosciences (SBI, Mountainview, CA) into lentiviral vectors pCDH-CMV-MCS-EF1-Neo and lentiviral particles were generated.
Engineered lines expressing HER2YVMA and HER2 WT were prepared in HEK293 (human embryonic kidney cells), Ba/F3 (Interleukin 3 (IL3)-dependent murine pro B cell line), and BEAS2B (primary immortalized human bronchial epithelial cell line). Ba/F3, BEAS2B, and HEK293 cells were obtained from the American Type Culture Collection (ATCC, Manassas, VA). Parental Ba/F3 cells were grown in suspension in complete RPMI 1640 supplemented with 10% FBS and 1% P/S and 10 ng/ml interleukin 3 (IL3, Sigma-Aldrich). Hek293 and BEAS2B cells were grown as monolayers in DMEM supplemented with 10% FBS and 1% P/S. All cells were maintained and propagated in a humidified 5% CO2 incubator at 37° C.
To generate Ba/F3, BEAS2B, and Hek-293 cells engineered with lentivirus to express HER2 WT or HER2YVMA, the cells were transduced with lentiviruses at multiplicity of infection (MOI) of 1 or 10; transduced cells were selected and maintained with G418 ([…]) (Geneticin, Life Technologies, Carlsbad, CA). Ba/F3 engineered cells were subjected to gradual withdrawal of interleukin 3 (IL-3, Sigma-Aldrich). After selection, IL3 independent Ba/F3 HER2YVMA, and BEAS2B HER2YVMA cells were cloned by limiting dilution. Hek293 HER2YVMA cells were used as pool. HER2 and phospho HER2 levels were confirmed by flow cytometery and immunoassay (MSD, Meso-Scale Discovery, Rockville, Maryland).
(§1) HER2 signaling was assessed in BT474 and N87 cell lines which endogenously overexpress the HER2 wildtype (WT) protein, in NCI-H1781 cells which endogenously expresses a HER2 mutant protein containing a VC insertion in the kinase domain (HER2VC or G776delinsVC), and in engineered cell lines transduced to express the Her2 mutant protein containing the YVMA insertion (Hek293-HER2YVMA and BEAS2B-HER2YVMA).
(§2) BT474, N87, and NCI-H1781 were plated in 96-well tissue-culture treated plates (Corning Costar, Sigma-Aldrich) in full media and incubated overnight. Hek293-HER2YVMA and BEAS2B-HER2YVMA cells were plated in 96-well poly-D-lysine treated plates (BD Bioscience, San Jose, CA). For treatment with test compounds, the media was replaced with corresponding low serum media (1% FBS) containing test compound at 1.1, 0.37, 0.12, 0.041, 0.014, 0.005, 0.0014, 0.0005 μM or DMSO control (0.1%). Cells were incubated with compound for 1.5 hr at 37° C. After compound treatment, the media was removed and cells were lysed for 30 min on ice in complete MSD lysis buffer (prepared using MSD base lysis buffer (Meso-Scale Discovery) supplemented with cOmplete, EDTA-free Protease inhibitor cocktail (Roche), Phosphatase Inhibitor Cocktails 2 and 3 (Sigma-Aldrich), and 1 mM PMSF (Sigma-Aldrich)). Lysates were stored at −70° C. until further analysis.
(§3) HER2 signaling was evaluated using phospho (Tyr1248)/total ErbB2 whole cell lysate MSD plates (Meso-Scale Discovery, Gaithersburg, MD). The phospho HER2 signal was normalized to total HER2 for each sample; results are reported as % DMSO control. The normalized data was fitted using a sigmoidal curve analysis program (Graph Pad Prism version 6) with variable Hill slope to determine EC50 values.
The HER2 signaling results are provided in Table 4, under columns titled “BT474-pHER2 EC50”, “N87-pHER2 EC50”, and “NCI-H1781-pHER2 EC50”. […]

In test [2] the target is T1, HER2 wildtype (WT) protein (Homo sapiens, UniProt P04626).
T1 construct: BT474 and N87 cell lines which endogenously overexpress the HER2 wildtype (WT) protein; endogenous in cells; host or cells: BT474, N87
T1 sequence (P04626 23-1255): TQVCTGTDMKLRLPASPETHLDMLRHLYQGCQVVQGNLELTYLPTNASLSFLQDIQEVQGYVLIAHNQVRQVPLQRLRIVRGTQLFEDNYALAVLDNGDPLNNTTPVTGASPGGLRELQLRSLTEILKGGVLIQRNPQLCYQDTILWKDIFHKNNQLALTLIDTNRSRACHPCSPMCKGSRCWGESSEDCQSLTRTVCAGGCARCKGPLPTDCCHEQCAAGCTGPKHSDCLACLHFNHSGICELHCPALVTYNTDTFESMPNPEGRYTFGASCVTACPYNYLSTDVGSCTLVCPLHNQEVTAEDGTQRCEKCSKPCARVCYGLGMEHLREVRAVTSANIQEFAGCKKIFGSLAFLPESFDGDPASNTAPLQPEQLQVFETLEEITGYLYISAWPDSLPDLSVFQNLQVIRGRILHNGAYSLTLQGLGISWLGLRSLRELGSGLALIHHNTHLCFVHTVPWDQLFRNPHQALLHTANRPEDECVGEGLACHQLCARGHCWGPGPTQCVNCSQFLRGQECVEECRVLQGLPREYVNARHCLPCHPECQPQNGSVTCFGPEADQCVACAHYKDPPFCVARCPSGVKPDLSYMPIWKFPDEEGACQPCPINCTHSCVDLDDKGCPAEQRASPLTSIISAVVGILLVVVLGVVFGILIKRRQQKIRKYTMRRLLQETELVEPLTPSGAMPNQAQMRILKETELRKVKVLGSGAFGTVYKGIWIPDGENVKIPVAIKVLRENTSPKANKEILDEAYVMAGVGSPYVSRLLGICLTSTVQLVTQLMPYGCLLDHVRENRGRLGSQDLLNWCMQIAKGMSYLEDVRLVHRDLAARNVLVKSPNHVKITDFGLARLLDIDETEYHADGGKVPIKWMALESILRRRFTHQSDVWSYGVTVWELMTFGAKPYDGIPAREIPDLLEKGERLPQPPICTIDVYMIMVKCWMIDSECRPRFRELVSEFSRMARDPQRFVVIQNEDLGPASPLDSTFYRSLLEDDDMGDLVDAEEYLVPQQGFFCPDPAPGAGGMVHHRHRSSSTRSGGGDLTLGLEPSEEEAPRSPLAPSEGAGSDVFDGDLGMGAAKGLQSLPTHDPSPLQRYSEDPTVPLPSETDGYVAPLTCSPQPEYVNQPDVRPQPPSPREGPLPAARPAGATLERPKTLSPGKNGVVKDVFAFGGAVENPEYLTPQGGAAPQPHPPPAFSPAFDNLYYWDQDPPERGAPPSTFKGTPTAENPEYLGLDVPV
The test is described as follows: HER2 signaling (pHER2 Tyr1248/total HER2 MSD) in BT474 cells. Type of test: cell-based. As to conditions: 1.5 hr compound, 1% FBS. As for the experimental part:
In addition to the engineered cell lines, the following cell lines were used: BT474 (human breast carcinoma), N87 (human gastric carcinoma), NCI-H1781 (human lung adenocarcinoma), and A431 (human epidermoid carcinoma); all cell lines were obtained from the American Type Culture Collection (ATCC, Manassas, VA). NCI-H1781 were grown in complete RPMI 1640 (Life Technologies, Carlsbad, CA) supplemented with 15% fetal bovine serum (FBS, Life Technologies, Carlsbad, CA) and 1% Penicillin-Streptomycin (P/S, Life Technologies, Carlsbad, CA). N87 cells were grown in complete RPMI 1640 supplemented with 10% FBS and 1% P/S. BT474 and A431 cells were grown in DMEM (Life Technologies, Carlsbad, CA) supplemented with 10% FBS and 1% P/S. All cells were maintained and propagated in a humidified 5% CO2 incubator at 37° C.
as §1, §2, §3
The HER2 signaling results are provided in Table 4, under columns titled “BT474-pHER2 EC50”, “N87-pHER2 EC50”, and “NCI-H1781-pHER2 EC50”. Hek293-HER2YVMA ins fall under the heading “HEKYVMA-pHER2 EC50”, Ba/F3 HER2YVMA fall under the heading “Ba/F3 YVMA-pHER2 EC50” and BEAS2B-HER2YVMA fall under the heading “BEAS2B YVMA-pHER2 EC50”.

HER2YVMA, sequence (P04626 with tags, fused parts or gaps INS775YVMA): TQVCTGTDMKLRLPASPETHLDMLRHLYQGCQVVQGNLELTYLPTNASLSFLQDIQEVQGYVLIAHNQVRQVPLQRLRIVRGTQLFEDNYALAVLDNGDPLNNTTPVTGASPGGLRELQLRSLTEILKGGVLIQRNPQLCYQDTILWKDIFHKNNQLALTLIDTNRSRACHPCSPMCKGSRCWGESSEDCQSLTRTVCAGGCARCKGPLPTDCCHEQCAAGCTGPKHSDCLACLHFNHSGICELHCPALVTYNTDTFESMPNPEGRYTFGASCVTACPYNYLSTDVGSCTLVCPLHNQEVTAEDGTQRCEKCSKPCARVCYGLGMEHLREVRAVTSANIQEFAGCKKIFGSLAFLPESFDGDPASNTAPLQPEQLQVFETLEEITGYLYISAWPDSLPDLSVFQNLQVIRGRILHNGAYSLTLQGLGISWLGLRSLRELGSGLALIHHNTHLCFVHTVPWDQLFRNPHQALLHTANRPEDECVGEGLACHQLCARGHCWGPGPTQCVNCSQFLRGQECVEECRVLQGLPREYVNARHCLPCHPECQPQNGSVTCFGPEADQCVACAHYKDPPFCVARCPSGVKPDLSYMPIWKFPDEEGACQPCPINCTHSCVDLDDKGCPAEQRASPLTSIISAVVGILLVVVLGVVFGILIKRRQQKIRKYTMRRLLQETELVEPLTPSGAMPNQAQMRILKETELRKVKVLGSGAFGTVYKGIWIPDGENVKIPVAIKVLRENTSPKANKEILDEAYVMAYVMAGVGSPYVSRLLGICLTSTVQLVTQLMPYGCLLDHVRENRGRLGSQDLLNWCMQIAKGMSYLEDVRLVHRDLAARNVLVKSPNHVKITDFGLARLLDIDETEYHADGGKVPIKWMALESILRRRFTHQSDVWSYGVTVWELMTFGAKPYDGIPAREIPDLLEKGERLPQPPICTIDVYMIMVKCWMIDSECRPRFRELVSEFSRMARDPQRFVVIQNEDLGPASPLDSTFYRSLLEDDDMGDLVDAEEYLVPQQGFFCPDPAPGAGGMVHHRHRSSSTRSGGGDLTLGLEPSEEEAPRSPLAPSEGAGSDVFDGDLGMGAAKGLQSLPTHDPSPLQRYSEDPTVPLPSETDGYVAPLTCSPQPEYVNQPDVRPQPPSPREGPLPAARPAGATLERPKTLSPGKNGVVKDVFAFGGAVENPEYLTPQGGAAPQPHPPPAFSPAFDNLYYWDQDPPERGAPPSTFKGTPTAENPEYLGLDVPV

Take `CCN(CC)C/C=C/C(=O)N1CCc2c(sc3ncnc(Nc4ccc(Oc5ccc(OC)nc5)c(C)c4)c23)C1` [Compound 137]: the 50% effective concentration (EC50) in test [1] and in test [2] was below 100 nM each time.

With `COc1ccc(Oc2ccc(Nc3ncnc4sc5c(c34)CCN(C(=O)/C=C/CN3CCOCC3)C5)cc2C)cn1` [Compound 164], the EC50 in test [1] and in test [2] was below 100 nM each time.

With `Cc1ccc(Oc2ccc(Nc3ncnc4sc5c(c34)CCN(C(=O)/C=C/CN3CCC(CO)(CO)CC3)C5)cc2C)cn1` [Compound 135], the EC50 in test [1] is 100 to 350 nM; in test [2], below 100 nM.

As for `C#CCOCCN(C)C/C=C/C(=O)N1CCc2c(sc3ncnc(Nc4ccc(Oc5ccc(C)nc5)c(C)c4)c23)C1` [Compound 139], the EC50 in test [1] and in test [2] was below 100 nM throughout.

For the molecule `Cc1cc(Nc2ncnc3sc4c(c23)CN(C(=O)/C=C/CN(C)C)C4)ccc1Oc1ccn2ncnc2c1` [Compound 130, (E)-1-(4-((4-([1,2,4]Triazolo[1,5-a]pyridin-7-yloxy)-3-methylphenyl)amino)-5H-pyrrolo[3′,4′:4,5]thieno[2,3-d]pyrimidin-6(7H)-yl)-4-(dimethylamino)but-2-en-1-one], the EC50 in test [1] and in test [2] was below 100 nM in each case.

Regarding `Cc1ccc(Oc2ccc(Nc3ncnc4sc5c(c34)C(C)CN(C(=O)/C=C/CN3CCOCC3)C5)cc2C)cn1` (stereo not shown) [Compound 174, (E)-1-(5-Methyl-4-((3-methyl-4-((6-methylpyridin-3-yl)oxy)phenyl)amino)-5,6-dihydropyrido[4′,3′:4,5]thieno[2,3-d]pyrimidin-7(8H)-yl)-4-morpholinobut-2-en-1-one], the concentration for a half-maximal effect (EC50) in test [1] and in test [2] was below 100 nM each time.

For `C=CC(=O)N1Cc2sc3ncnc(Nc4ccc(Oc5ccc(C)nc5)c(C)c4)c3c2C(C)C1` (single isomer, unassigned) [Compound 146], the concentration for a half-maximal effect (EC50) in test [1] and in test [2] was below 100 nM throughout.

Turning to `Cc1ccc(Oc2ccc(Nc3ncnc4sc5c(c34)CCN(C(=O)/C=C/CN3CCCCC3(C)CO)C5)cc2C)cn1` (stereo not shown) [Compound 119], the EC50 in test [1] and in test [2] was below 100 nM in each case.

As for `Cc1ccc(Oc2ccc(Nc3ncnc4sc5c(c34)CN(C(=O)C=CCN(C)C)C5C)cc2C)cn1` (single isomer, unassigned) [Compound 169], the 50% effective concentration (EC50) in test [1] and in test [2] was below 100 nM throughout.

With `Cc1ccc(Oc2ccc(Nc3ncnc4sc5c(c34)CCN(C(=O)/C=C/CN3CC[C@H](F)C3)C5)cc2C)cn1` [Compound 124], the EC50 in test [1] and in test [2] was below 100 nM in each case.

Consider `Cc1ccc(Oc2ccc(Nc3ncnc4sc5c(c34)C(C)CN(C(=O)C=CCN3CCOCC3)C5)cc2C)cn1` (single isomer, unassigned) [Compound 176], for which the concentration giving a half-maximal response (EC50) in test [1] and in test [2] was below 100 nM throughout.

With `CC[C@H](NC/C=C/C(=O)N1CCc2c(sc3ncnc(Nc4ccc(Oc5ccc(C)nc5)c(C)c4)c23)C1)C(F)(F)F` [Compound 122], the EC50 in test [1] and in test [2] was below 100 nM each time.

As to `Cc1ccc(Oc2ccc(Nc3ncnc4sc5c(c34)CN(C(=O)/C=C/CN(C)C)C5)cc2Cl)cn1` [Compound 129, (E)-1-(4-((3-Chloro-4-((6-methylpyridin-3-yl)oxy)phenyl)amino)-5H-pyrrolo[3′,4′:4,5]thieno[2,3-d]pyrimidin-6(7H)-yl)-4-(dimethylamino)but-2-en-1-one], the concentration giving a half-maximal response (EC50) in test [1] and in test [2] was below 100 nM each time.

For `Cc1ccc(Oc2ccc(Nc3ncnc4sc5c(c34)CCN(C(=O)/C=C/CN(C)C)C5)cc2C)cn1` [Compound 8, (E)-4-(Dimethylamino)-1-(4-((3-methyl-4-((6-methylpyridin-3-yl)oxy)phenyl)amino)-5,6-dihydropyrido[4′,3′:4,5]thieno[2,3-d]pyrimidin-7(8H)-yl)but-2-en-1-one], the 50% effective concentration (EC50) in test [1] and in test [2] was below 100 nM throughout.

`Cc1ccc(Oc2ccc(Nc3ncnc4sc5c(c34)CCN(C(=O)/C=C/CN3CC4CC4(CO)C3)C5)cc2C)cn1` (stereo not shown) [Compound 118]: the concentration for a half-maximal effect (EC50) in test [1] and in test [2] was below 100 nM each time.

As to `Cc1ccc(Oc2ccc(Nc3ncnc4sc5c(c34)C(C)CN(C(=O)C=CCN3CCOCC3)C5)cc2C)cn1` (single isomer, unassigned) [Compound 177], the concentration giving a half-maximal response (EC50) in test [1] and in test [2] was below 100 nM throughout.

Turning to `Cc1ccc(Oc2ccc(Nc3ncnc4sc5c(c34)CCN(C(=O)/C=C/CN3CC(F)(CO)C3)C5)cc2C)cn1` [Compound 151], the concentration giving a half-maximal response (EC50) in test [1] was 100 to 350 nM; in test [2], below 100 nM.

As to `COc1ccc(Oc2ccc(Nc3ncnc4sc5c(c34)CCN(C(=O)/C=C/CN(C)C(C)(C)C)C5)cc2C)cn1` [Compound 163], the EC50 in test [1] and in test [2] was below 100 nM throughout.

Regarding `Cc1ccc(Oc2ccc(Nc3ncnc4sc5c(c34)CCN(C(=O)/C=C/CN3CC(CO)(CO)C3)C5)cc2C)cn1` [Compound 134], the EC50 in test [1] and in test [2] was 100 to 350 nM each time.

For the molecule `CCN(CC)C/C=C/C(=O)N1CCc2c(sc3ncnc(Nc4ccc(Oc5ccc(C)nc5)c(C)c4)c23)C1` [Compound 131], the concentration for a half-maximal effect (EC50) in test [1] and in test [2] was below 100 nM each time.

Turning to `Cc1ccc(Oc2ccc(Nc3ncnc4sc5c(c34)CCN(C(=O)/C=C/CN3CCCC(c4nccs4)C3)C5)cc2C)cn1` (stereo not shown) [Compound 113], the EC50 in test [1] and in test [2] was below 100 nM throughout.

As for `Cc1ccc(Oc2ccc(Nc3ncnc4sc5c(c34)CCN(C(=O)/C=C/CN3CC4(CCCC4)C3)C5)cc2C)cn1` [Compound 123], the EC50 in test [1] and in test [2] was below 100 nM each time.

Regarding `Cc1ccc(Oc2ccc(Nc3ncnc4sc5c(c34)CCN(C(=O)/C=C/CN3CC(C)OC(C)C3C)C5)cc2C)cn1` (stereo not shown) [Compound 117], the EC50 in test [1] and in test [2] was below 100 nM each time.

The EC50 is the concentration giving half of the maximal effect.

The record behind these values is patent publication US20240391931A1 (Bristol-Myers Squibb Company, priority 2021, published 2024).
